Among the data in patent US8871934B2, “Fluorene compound and pharmaceutical use thereof” (Japan Tobacco Inc., priority 2008, dated 2014) are IC50 values, retold here.

The test addresses human PDHK2 (hPDHK2) (Homo sapiens (Human), UniProt Q15119). Briefly: Inhibitory action of PDHK activity in vitro (kinase reaction, residual PDH activity measured). The class given is biochemical.
The mark [1] stands for this setting: PDHK inhibitory activity, class symbol of IC50.
The mark [2] stands for this setting: read-out: PDHK inhibitory activity IC50.

Structures are written as SMILES. Where two headings read alike, the source gives them in different places.

For the molecule `COc1ccc2c(c1)C(O)(C(F)(F)F)c1ccccc1-2` (centres unmarked) [compound 37], the IC50 (commonly the concentration that gives 50% inhibition) is above 1000 nM under setting [1] and 3960 nM under setting [2].

For `Oc1ccc2c(c1)C(O)(C(F)(F)F)c1ccccc1-2` (centres unmarked) [compound 38], the IC50 reads like this: under setting [1], above 1000 nM; under setting [2], 12000 nM.

As for `CCc1ccc2c(c1)C(O)(C(F)(F)F)c1ccccc1-2` (centres unmarked) [compound 39], the IC50 runs as follows: under setting [1], above 1000 nM; under setting [2], 4520 nM.

Consider `COC(=O)c1ccc2c(c1)-c1ccccc1C2(O)C(F)(F)F` (centres unmarked) [compound 40], for which the IC50 is, setting by setting: under setting [1], above 1000 nM; under setting [2], 2470 nM.

As to `O=C(O)c1ccc2c(c1)-c1ccccc1C2(O)C(F)(F)F` (centres unmarked) [compound 41], the IC50 under setting [1] was above 1000 nM and the IC50 under setting [2] worked out at 68600 nM.

For `NC(=O)c1ccc2c(c1)-c1ccccc1C2(O)C(F)(F)F` (centres unmarked) [compound 42], the IC50 runs as follows: under setting [1], above 1000 nM; under setting [2], 5560 nM.

As for `CNC(=O)c1ccc2c(c1)-c1ccccc1C2(O)C(F)(F)F` (centres unmarked) [compound 43], the IC50 under setting [1] is above 1000 nM and the 50% inhibitory concentration (IC50) under setting [2] worked out at 3920 nM.

For `CN(C)C(=O)c1ccc2c(c1)-c1ccccc1C2(O)C(F)(F)F` (centres unmarked) [compound 44], the IC50 under setting [1] was above 1000 nM and the IC50 under setting [2] is above 100000 nM.

Consider `COC(=O)c1cc(C)c2c(c1)C(O)(C(F)(F)F)c1ccccc1-2` (centres unmarked) [compound 45], for which the IC50 is 100 to 1000 nM under setting [1] and 247 nM under setting [2].

On to `COc1cccc2c1-c1ccccc1C2(O)C(F)(F)F` (centres unmarked) [compound 46], for which the IC50 is above 1000 nM under setting [1] and 6490 nM under setting [2].

With `COc1ccc2c(c1)-c1ccccc1C2(O)C(F)(F)F` (centres unmarked) [compound 47], the IC50 under setting [1] is above 1000 nM and the IC50 under setting [2] was 4910 nM.

Consider `CCOC(=O)c1cccc2c1-c1ccccc1C2(O)C(F)(F)F` (centres unmarked) [compound 48], for which the half-maximal inhibitory concentration (IC50) reads like this: under setting [1], 100 to 1000 nM; under setting [2], 639 nM.

On to `N#Cc1cccc2c1-c1ccccc1C2(O)C(F)(F)F` (centres unmarked) [compound 49], for which the IC50 was above 1000 nM under setting [1] and 1790 nM under setting [2].

As to `COC(=O)c1cc(C(=O)OC)c2c(c1)C(O)(C(F)(F)F)c1ccccc1-2` (centres unmarked) [compound 50], the IC50 was 100 to 1000 nM under setting [1] and 100 nM under setting [2].

In the case of `CCN(C)C(=O)c1ccc2c(c1)C(O)(C(F)(F)F)c1ccccc1-2` (centres unmarked) [compound 51], the IC50 was above 1000 nM under setting [1] and 2590 nM under setting [2].

Regarding `O=C(c1ccc2c(c1)C(O)(C(F)(F)F)c1ccccc1-2)N1CCCCC1` (centres unmarked) [compound 52], the IC50 runs as follows: under setting [1], above 1000 nM; under setting [2], 4010 nM.

For `O=C(c1ccc2c(c1)C(O)(C(F)(F)F)c1ccccc1-2)N1CCCC1` (centres unmarked) [compound 53], the IC50 is 100 to 1000 nM under setting [1] and 567 nM under setting [2].

As to `CCN(CC)C(=O)c1ccc2c(c1)C(O)(C(F)(F)F)c1ccccc1-2` (centres unmarked) [compound 54], the IC50 is above 1000 nM under setting [1] and 21900 nM under setting [2].

`Nc1ccc2c(c1)C(O)(C(F)(F)F)c1ccccc1-2` (centres unmarked) [compound 55]: the IC50 by setting is: under setting [1], above 1000 nM; under setting [2], 19800 nM.

With `CN(C(=O)c1ccc2c(c1)C(O)(C(F)(F)F)c1ccccc1-2)c1ccccc1` (centres unmarked) [compound 56], the IC50 is above 1000 nM under setting [1] and above 100000 nM under setting [2].

On to `CN(C(=O)c1ccc2c(c1)C(O)(C(F)(F)F)c1ccccc1-2)C1CCC1` (centres unmarked) [compound 57], for which the IC50 was above 1000 nM under setting [1] and 5620 nM under setting [2].

Turning to `O=C(c1ccc2c(c1)C(O)(C(F)(F)F)c1ccccc1-2)N1CCC1` (centres unmarked) [compound 58], the IC50 runs as follows: under setting [1], 100 to 1000 nM; under setting [2], 195 nM.

For the molecule `CCCOC(=O)c1cccc2c1-c1ccccc1C2(O)C(F)(F)F` (centres unmarked) [compound 59], the IC50 reads like this: under setting [1], 100 to 1000 nM; under setting [2], 772 nM.

For `CC(C)OC(=O)c1cccc2c1-c1ccccc1C2(O)C(F)(F)F` (centres unmarked) [compound 60], the IC50 under setting [1] is above 1000 nM and the IC50 under setting [2] turned out to be 2040 nM.

In the case of `COC(=O)c1cc(Cl)c2c(c1)C(O)(C(F)(F)F)c1ccccc1-2` (centres unmarked) [compound 61], the IC50 runs as follows: under setting [1], 100 to 1000 nM; under setting [2], 294 nM.

On to `Oc1ccc2c(c1)-c1ccccc1C2(O)C(F)(F)F` (centres unmarked) [compound 62], for which the IC50 is, setting by setting: under setting [1], above 1000 nM; under setting [2], 15700 nM.

Turning to `Oc1cccc2c1-c1ccccc1C2(O)C(F)(F)F` (centres unmarked) [compound 63], the IC50 is, setting by setting: under setting [1], above 1000 nM; under setting [2], 8480 nM.

Consider `OC1(C(F)(F)F)c2ccccc2-c2c(C(F)(F)F)cccc21` (centres unmarked) [compound 64], for which the IC50 is above 1000 nM under setting [1] and 18000 nM under setting [2].

As for `CON(C)C(=O)c1cccc2c1-c1ccccc1C2(O)C(F)(F)F` (centres unmarked) [compound 65], the IC50 under setting [1] is above 1000 nM and the IC50 under setting [2] is above 100000 nM.

In the case of `CCOc1cccc2c1-c1ccccc1C2(O)C(F)(F)F` (centres unmarked) [compound 66], the IC50 is above 1000 nM under setting [1] and 66300 nM under setting [2].

Turning to `CCOc1ccc2c(c1)-c1ccccc1C2(O)C(F)(F)F` (centres unmarked) [compound 67], the IC50 under setting [1] is above 1000 nM and the IC50 under setting [2] was determined as 4200 nM.

Turning to `CC(=O)c1cccc2c1-c1ccccc1C2(O)C(F)(F)F` (centres unmarked) [compound 68], the IC50 reads like this: under setting [1], 100 to 1000 nM; under setting [2], 624 nM.

Turning to `OCc1ccc2c(c1)C(O)(C(F)(F)F)c1ccccc1-2` (centres unmarked) [compound 69], the IC50 is above 1000 nM under setting [1] and 16000 nM under setting [2].

For the molecule `CCCc1ccc2c(c1)C(O)(C(F)(F)F)c1ccccc1-2` (centres unmarked) [compound 70], the IC50 reads like this: under setting [1], above 1000 nM; under setting [2], 2210 nM.

On to `CC(C)c1ccc2c(c1)C(O)(C(F)(F)F)c1ccccc1-2` (centres unmarked) [compound 71], for which the half-maximal inhibitory concentration (IC50) under setting [1] was above 1000 nM and the IC50 under setting [2] turned out to be 10200 nM.

On to `CCNC(=O)c1ccc2c(c1)-c1ccccc1C2(O)C(F)(F)F` (centres unmarked) [compound 72], for which the IC50 under setting [1] was above 1000 nM and the IC50 under setting [2] was determined as 4420 nM.

On to `CC(C)NC(=O)c1ccc2c(c1)-c1ccccc1C2(O)C(F)(F)F` (centres unmarked) [compound 73], for which the IC50 under setting [1] is above 1000 nM and the IC50 under setting [2] was determined as 4810 nM.

`OCc1cccc2c1-c1ccccc1C2(O)C(F)(F)F` (centres unmarked) [compound 74]: the IC50 was above 1000 nM under setting [1] and 3320 nM under setting [2].

Regarding `COCc1ccc2c(c1)C(O)(C(F)(F)F)c1ccccc1-2` (centres unmarked) [compound 75], the IC50 under setting [1] is above 1000 nM and the IC50 under setting [2] stood at 6780 nM.

Take `CC(=O)c1ccc2c(c1)C(O)(C(F)(F)F)c1ccccc1-2` (centres unmarked) [compound 76]: the half-inhibitory concentration (IC50) is, setting by setting: under setting [1], above 1000 nM; under setting [2], 1750 nM.

Turning to `CC1CCCN1C(=O)c1ccc2c(c1)C(O)(C(F)(F)F)c1ccccc1-2` (centres unmarked) [compound 77], the IC50 reads like this: under setting [1], above 1000 nM; under setting [2], 2500 nM.

Turning to `O=C(c1ccc2c(c1)C(O)(C(F)(F)F)c1ccccc1-2)N1CC1` (centres unmarked) [compound 78], the half-inhibitory concentration (IC50) was above 1000 nM under setting [1] and 1360 nM under setting [2].

Regarding `O=C(c1ccc2c(c1)C(O)(C(F)(F)F)c1ccccc1-2)N1CC(O)C1` (centres unmarked) [compound 79], the IC50 is 100 to 1000 nM under setting [1] and 696 nM under setting [2].

For `CN(C)c1ccc2c(c1)C(O)(C(F)(F)F)c1ccccc1-2` (centres unmarked) [compound 80], the IC50 is above 1000 nM under setting [1] and 8240 nM under setting [2].

For the molecule `CCC(=O)c1cccc2c1-c1ccccc1C2(O)C(F)(F)F` (centres unmarked) [compound 81], the IC50 is above 1000 nM under setting [1] and 2760 nM under setting [2].

Regarding `COCc1cccc2c1-c1ccccc1C2(O)C(F)(F)F` (centres unmarked) [compound 82], the IC50 is above 1000 nM under setting [1] and 67300 nM under setting [2].

For the molecule `O=C(c1cccc2c1-c1ccccc1C2(O)C(F)(F)F)C1CC1` (centres unmarked) [compound 83], the IC50 reads like this: under setting [1], above 1000 nM; under setting [2], 1140 nM.

Take `CN(C)c1cccc2c1-c1ccccc1C2(O)C(F)(F)F` (centres unmarked) [compound 84]: the IC50 reads like this: under setting [1], above 1000 nM; under setting [2], 42100 nM.

Take `CNc1cccc2c1-c1ccccc1C2(O)C(F)(F)F` (centres unmarked) [compound 85]: the IC50 under setting [1] is above 1000 nM and the IC50 under setting [2] amounted to 23100 nM.

Regarding `COC1CN(C(=O)c2ccc3c(c2)C(O)(C(F)(F)F)c2ccccc2-3)C1` (centres unmarked) [compound 86], the IC50 reads like this: under setting [1], 100 to 1000 nM; under setting [2], 378 nM.

On to `O=C(c1ccc2c(c1)C(O)(C(F)(F)F)c1ccccc1-2)N1CC(CO)C1` (centres unmarked) [compound 87], for which the IC50 is 100 to 1000 nM under setting [1] and 669 nM under setting [2].

With `CC1CN(C(=O)c2ccc3c(c2)C(O)(C(F)(F)F)c2ccccc2-3)C1` (centres unmarked) [compound 88], the IC50 runs as follows: under setting [1], above 1000 nM; under setting [2], 2530 nM.

On to `CCOc1ccc2c(c1)C(O)(C(F)(F)F)c1ccccc1-2` (centres unmarked) [compound 89], for which the IC50 under setting [1] is above 1000 nM and the IC50 under setting [2] was 2150 nM.

As for `CC1CCN1C(=O)c1ccc2c(c1)C(O)(C(F)(F)F)c1ccccc1-2` (centres unmarked) [compound 90], the IC50 reads like this: under setting [1], 100 to 1000 nM; under setting [2], 474 nM.

Take `Cc1cc(C(=O)N2CCC2)cc2c1-c1ccccc1C2(O)C(F)(F)F` (centres unmarked) [compound 91]: the IC50 is below 100 nM under setting [1] and 72 nM under setting [2].

For `OC1(C(F)(F)F)c2ccccc2-c2c(-c3cnco3)cccc21` (centres unmarked) [compound 92], the IC50 runs as follows: under setting [1], 100 to 1000 nM; under setting [2], 405 nM.

With `CC(C)C(=O)c1cccc2c1-c1ccccc1C2(O)C(F)(F)F` (centres unmarked) [compound 93], the IC50 runs as follows: under setting [1], above 1000 nM; under setting [2], 29500 nM.

On to `O=C(c1cc(Cl)c2c(c1)C(O)(C(F)(F)F)c1ccccc1-2)N1CCC1` (centres unmarked) [compound 94], for which the IC50 was below 100 nM under setting [1] and 49 nM under setting [2].

In the case of `CNc1ccc2c(c1)C(O)(C(F)(F)F)c1ccccc1-2` (centres unmarked) [compound 95], the IC50 is, setting by setting: under setting [1], above 1000 nM; under setting [2], 7830 nM.

With `CC(=O)N(C)c1ccc2c(c1)C(O)(C(F)(F)F)c1ccccc1-2` (centres unmarked) [compound 96], the IC50 under setting [1] is above 1000 nM and the IC50 under setting [2] is 6570 nM.

Consider `OC1(C(F)(F)F)c2ccccc2-c2ccc(-c3ccccc3)cc21` (centres unmarked) [compound 97], for which the IC50 under setting [1] is 100 to 1000 nM and the IC50 under setting [2] came out at 849 nM.

As to `O=C(c1ccccc1)c1ccc2c(c1)C(O)(C(F)(F)F)c1ccccc1-2` (centres unmarked) [compound 98], the IC50 was above 1000 nM under setting [1] and 2420 nM under setting [2].

As for `O=C(c1ccc2c(c1)C(O)(C(F)(F)F)c1ccccc1-2)c1cccs1` (centres unmarked) [compound 99], the IC50 by setting is: under setting [1], 100 to 1000 nM; under setting [2], 718 nM.

Take `CCC(=O)Nc1ccc2c(c1)-c1ccccc1C2(O)C(F)(F)F` (centres unmarked) [compound 100]: the IC50 is, setting by setting: under setting [1], above 1000 nM; under setting [2], 6150 nM.
